{"source": "paper PMC7615677", "about": "(Science translational medicine, 2023)", "key": {"[1]": {"test_system": "AR", "assay": "In vitro pharmacology panel (Eurofins)", "assay_type": "binding, human", "conditions": "10 µM", "from_the_text": "(§1) Listed values represent the percent change relative to the DMSO control activity. When an IC50 had to be determined, eight different concentrations were included. All values are the mean of assay readout duplicates."}, "[2]": {"assay": "in vivo", "conditions": "both, Wistar Han, rat, po", "text": "Parameters monitored included morbidity/mortality, clinical signs, body weight, food consumption, hematology and serum clinical chemistry. Main study animals were killed on the day after the last dose and necropsied. Selected organs were weighed. Organ/tissue samples were fixed and preserved at necropsy. Following the macroscopic examination, selected organs/tissues were examined histopathologically and compared to the control group. Satellite animals were sampled for toxicokinetics on days 1 and 14, at various time-points after treatment."}, "[3]": {"molecular_target": "CaV1.2 (Homo sapiens, UniProt Q13936)", "sequence (Q13936 whole entry)": "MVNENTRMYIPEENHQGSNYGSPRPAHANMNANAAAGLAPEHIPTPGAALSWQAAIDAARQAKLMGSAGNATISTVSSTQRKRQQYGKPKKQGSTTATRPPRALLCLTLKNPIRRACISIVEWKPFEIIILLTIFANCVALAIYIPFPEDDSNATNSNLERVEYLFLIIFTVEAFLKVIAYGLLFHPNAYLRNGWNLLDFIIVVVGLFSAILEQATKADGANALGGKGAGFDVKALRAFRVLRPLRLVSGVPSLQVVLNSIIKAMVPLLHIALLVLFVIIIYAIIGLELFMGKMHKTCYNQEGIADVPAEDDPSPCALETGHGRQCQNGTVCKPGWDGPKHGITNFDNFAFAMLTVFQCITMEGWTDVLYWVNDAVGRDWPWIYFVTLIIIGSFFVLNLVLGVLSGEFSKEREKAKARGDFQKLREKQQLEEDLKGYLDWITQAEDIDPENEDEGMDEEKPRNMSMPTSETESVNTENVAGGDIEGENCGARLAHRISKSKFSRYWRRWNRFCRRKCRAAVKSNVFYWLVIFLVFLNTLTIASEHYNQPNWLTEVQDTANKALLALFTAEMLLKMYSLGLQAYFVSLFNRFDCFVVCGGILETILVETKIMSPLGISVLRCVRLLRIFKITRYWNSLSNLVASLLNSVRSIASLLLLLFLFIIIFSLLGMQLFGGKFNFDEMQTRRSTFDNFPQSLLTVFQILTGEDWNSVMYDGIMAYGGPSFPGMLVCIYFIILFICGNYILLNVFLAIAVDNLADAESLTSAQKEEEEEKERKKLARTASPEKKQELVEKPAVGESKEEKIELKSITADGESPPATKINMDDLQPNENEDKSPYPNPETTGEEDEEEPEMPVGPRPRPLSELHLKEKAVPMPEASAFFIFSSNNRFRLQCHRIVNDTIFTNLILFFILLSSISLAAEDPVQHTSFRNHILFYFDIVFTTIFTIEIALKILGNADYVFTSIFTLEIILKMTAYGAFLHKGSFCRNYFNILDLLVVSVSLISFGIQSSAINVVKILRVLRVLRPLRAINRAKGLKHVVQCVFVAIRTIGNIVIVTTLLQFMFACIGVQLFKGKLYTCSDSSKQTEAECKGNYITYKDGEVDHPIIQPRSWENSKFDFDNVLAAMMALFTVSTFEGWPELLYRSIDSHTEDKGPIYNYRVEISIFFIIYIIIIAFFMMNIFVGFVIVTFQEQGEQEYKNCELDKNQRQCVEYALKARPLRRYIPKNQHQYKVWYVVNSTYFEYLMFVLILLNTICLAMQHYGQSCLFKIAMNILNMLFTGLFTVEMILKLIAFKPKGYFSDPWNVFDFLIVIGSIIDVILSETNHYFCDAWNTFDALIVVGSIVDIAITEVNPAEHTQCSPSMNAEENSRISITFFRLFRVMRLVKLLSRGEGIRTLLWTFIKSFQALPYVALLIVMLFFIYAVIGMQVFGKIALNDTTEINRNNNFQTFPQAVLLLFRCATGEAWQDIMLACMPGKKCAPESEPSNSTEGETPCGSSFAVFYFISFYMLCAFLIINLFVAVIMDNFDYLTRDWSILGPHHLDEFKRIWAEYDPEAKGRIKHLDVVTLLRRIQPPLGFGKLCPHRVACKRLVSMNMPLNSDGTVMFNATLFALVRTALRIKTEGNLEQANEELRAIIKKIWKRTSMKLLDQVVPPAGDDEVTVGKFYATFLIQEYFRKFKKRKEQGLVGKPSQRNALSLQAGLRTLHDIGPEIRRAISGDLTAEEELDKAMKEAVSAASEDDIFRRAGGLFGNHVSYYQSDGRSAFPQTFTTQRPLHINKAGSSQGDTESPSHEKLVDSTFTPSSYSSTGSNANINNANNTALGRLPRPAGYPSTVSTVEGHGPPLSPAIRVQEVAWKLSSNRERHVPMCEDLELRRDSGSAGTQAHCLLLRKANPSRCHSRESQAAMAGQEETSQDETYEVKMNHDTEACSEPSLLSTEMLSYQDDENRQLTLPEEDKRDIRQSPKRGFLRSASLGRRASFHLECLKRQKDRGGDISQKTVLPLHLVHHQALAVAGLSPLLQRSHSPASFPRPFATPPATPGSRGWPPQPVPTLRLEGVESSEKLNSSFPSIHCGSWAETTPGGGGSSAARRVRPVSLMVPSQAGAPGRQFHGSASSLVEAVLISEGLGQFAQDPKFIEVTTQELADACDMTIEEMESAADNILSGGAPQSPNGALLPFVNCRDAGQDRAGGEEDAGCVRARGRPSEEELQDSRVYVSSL", "sequence (Q08289 whole entry partner)": "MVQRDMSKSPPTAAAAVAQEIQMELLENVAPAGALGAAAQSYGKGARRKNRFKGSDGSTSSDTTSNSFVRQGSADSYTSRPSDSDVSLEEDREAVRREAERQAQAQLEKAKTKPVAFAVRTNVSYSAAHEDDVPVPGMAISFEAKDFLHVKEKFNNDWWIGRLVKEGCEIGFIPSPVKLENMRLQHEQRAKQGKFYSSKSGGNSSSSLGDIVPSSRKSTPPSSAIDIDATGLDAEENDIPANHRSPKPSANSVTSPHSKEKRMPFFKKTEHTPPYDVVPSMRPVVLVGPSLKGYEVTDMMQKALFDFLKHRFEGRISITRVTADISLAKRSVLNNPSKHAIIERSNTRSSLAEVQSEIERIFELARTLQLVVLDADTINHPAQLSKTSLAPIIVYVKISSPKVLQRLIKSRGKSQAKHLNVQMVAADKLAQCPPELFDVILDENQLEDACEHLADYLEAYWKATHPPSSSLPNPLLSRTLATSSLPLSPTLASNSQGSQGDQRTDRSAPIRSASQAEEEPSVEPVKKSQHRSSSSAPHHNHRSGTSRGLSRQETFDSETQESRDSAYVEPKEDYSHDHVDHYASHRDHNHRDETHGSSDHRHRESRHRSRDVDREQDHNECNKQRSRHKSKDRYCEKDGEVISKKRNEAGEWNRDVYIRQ", "assay": "in vitro"}, "[4]": {"molecular_target": "T1, alpha1A Human Adrenoceptor GPCR (Homo sapiens, UniProt P35348)", "T1 construct": "Eurofins (contract assay)", "T1 sequence (P35348 whole entry)": "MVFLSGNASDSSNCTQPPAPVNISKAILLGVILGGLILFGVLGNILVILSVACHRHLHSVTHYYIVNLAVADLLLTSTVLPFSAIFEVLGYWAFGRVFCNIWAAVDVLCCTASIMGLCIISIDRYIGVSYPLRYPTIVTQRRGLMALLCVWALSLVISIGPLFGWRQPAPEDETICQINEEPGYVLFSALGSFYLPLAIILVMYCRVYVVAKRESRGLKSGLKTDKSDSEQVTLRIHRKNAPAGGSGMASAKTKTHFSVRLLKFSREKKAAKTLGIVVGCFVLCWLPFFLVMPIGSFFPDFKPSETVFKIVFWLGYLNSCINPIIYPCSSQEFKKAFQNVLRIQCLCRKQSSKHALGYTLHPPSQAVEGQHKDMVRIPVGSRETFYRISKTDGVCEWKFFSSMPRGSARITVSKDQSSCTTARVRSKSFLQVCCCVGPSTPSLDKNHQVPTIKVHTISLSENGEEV", "assay": "α1A antagonism IC50 determination", "assay_type": "cell-based", "from_the_text": "as §1"}, "[5]": {"assay": "In vitro metabolism, cryopreserved hepatocytes", "assay_type": "in vitro ADME, mouse", "protocol": "Cell viability was determined using trypan blue exclusion. The incubation was performed on a plate shaker (Heidolph Titrimax 100, 900 rpm) placed in a humidified incubator (37°C, 7.5% CO2) for 240 min. The reaction was initiated with the addition of compound with samples taken periodically and quenched with the addition of acetonitrile containing internal standards (metolazone and diazepam). Quenched samples were maintained on ice for approximately 20-30 min, centrifuged (for 5 min) and the supernatant analyzed by LC-MS.\nIn vitro intrinsic clearance (CLint, μL/min/mg or μL/min/10^6 cells) values were calculated from the apparent first order degradation rate constant divided by the microsome concentration or the hepatocyte cell number (10^6 viable cells/mL). In vitro CLint values were then divided by the fraction unbound in the in vitro test system (to give CLint,u) and scaled to in vivo values (mL/min/kg) using published physiological scaling factors ([28]). Blood clearance in each species was then calculated using the well-stirred model of hepatic extraction (equation 2) where Q is the hepatic blood flow and fu,blood is calculated from fu,plasma/B:P: [2] PredictedCLblood=Q x fu,blood x CLint,u/Q+fu,blood x CLint,u\nBlood clearance values were converted to plasma clearance by multiplying by the B:P."}, "[6]": {"assay": "Binding to hepatocytes, calculated from microsomal binding", "assay_type": "in vitro ADME", "conditions": "human, 1 x 10^6 cells/mL, read-out: hepatocyte fraction unbound", "protocol": "Dialysis was conducted for 6 h and parallel non-dialyzed samples were included to confirm the absence of compound degradation. Binding to hepatocytes (at a cell density of 1 x 10^6 cells/mL) was calculated from the measured microsomal binding (at 1 mg/mL) as described previously ([26]). The fraction unbound (fu) was determined from the ratio of the dialysate to the donor concentration, assuming that the system was at steady state at the end of the dialysis period. For plasma, the data were corrected for the dilution factor to give a binding value for neat plasma according to previously published methods ([27])."}, "[7]": {"test_system": "CHO-K1 cells", "assay": "In vitro micronucleus assay", "assay_type": "cell-based", "conditions": "absence or presence of rat liver S9", "protocol": "The treatment time was 24 h without metabolic activation (rat liver S9) and 3 h with activation. The positive controls were bleomycin sulfate and cyclophosphamide, respectively."}, "[8]": {"assay": "In vitro cytotoxicity assay", "assay_type": "cell-based", "conditions": "human, U2OS human osteosarcoma cells"}, "[9]": {"assay": "Human PK and dose prediction (IVIVE, allometry, GastroPlus PBPK)", "conditions": "plasma; for AUC: read-out: target cumulative total human plasma AUC", "from_the_text": "Human plasma clearance was estimated by in vitro/in vivo extrapolation (IVIVE) of data from liver microsomes and allometry using the available in vivo preclinical data. In both cases, renal excretion of unchanged drug was assumed to be negligible (experimentally confirmed in the rat). […] Therefore, the “rule of exponents” was applied and the unbound clearance data were corrected for brain weight ([13]) as described previously ([14]).\nThe predicted clearance was input along with the data in Table S16 into a physiologically-based pharmacokinetic (PBPK) model (GastroPlus) to simulate human profiles under different dosing conditions. Given that there was no evidence of renal elimination in rats, it was assumed that clearance occurs solely by hepatic metabolism.\nHuman clearance was estimated using in vitro/in vivo extrapolation (IVIVE) of data obtained in liver microsomes and cryopreserved hepatocytes incorporating binding to microsomes and hepatocytes, plasma protein binding and the blood to plasma ratio. Scaling factors were as described previously ([12]) and liver blood flows were from Simcyp, assuming an average human body weight of 50 kg was assumed for the patient population ([12]).\nThe human dose predictions were based on PK and PD data in hamsters (best case scenario) and mice (worst case scenario) and unbound plasma concentrations that led to 95% efficacy. Human profiles were simulated at different doses and dosing regimens (qd or bid) over 10-14 days using GastroPlus (version 9.8, Simulations Plus, Inc., Lancaster, CA). The PBPK model used fasted physiological conditions and a 50 kg 30-year-old American male. The Berezhkovskiy perfusion limited model was used for Kp estimation ([30]). The estimated human plasma clearance was input directly into the model with the assumption that elimination occurred only by hepatic metabolism (consistent with data in rats)."}, "[10]": {"assay": "In vitro cytotoxicity assay", "assay_type": "cell-based", "conditions": "rat, L-6 rat skeletal myoblasts"}, "[11]": {"assay": "In vitro cytotoxicity assay", "assay_type": "cell-based", "conditions": "human, HFF human foreskin fibroblasts"}, "[12]": {"test_system": "T. b. rhodesiense (bloodstream form)", "assay": "In vitro activity against other kinetoplastid parasites", "assay_type": "cell-based", "conditions": "Trypanosoma brucei, one range given for T. brucei brucei and T. b. rhodesiense"}, "[13]": {"molecular_target": "complex III of L. donovani (Leishmania donovani, UniProt A5HU08)", "sequence (A5HU08 1-290)": "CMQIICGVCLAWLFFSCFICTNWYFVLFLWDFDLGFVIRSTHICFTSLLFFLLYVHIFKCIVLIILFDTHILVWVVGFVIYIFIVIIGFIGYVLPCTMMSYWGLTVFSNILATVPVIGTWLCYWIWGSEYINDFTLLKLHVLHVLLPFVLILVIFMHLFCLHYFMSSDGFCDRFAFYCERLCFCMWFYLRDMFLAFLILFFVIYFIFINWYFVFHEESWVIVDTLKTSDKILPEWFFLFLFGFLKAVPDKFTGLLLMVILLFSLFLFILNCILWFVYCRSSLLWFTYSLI", "sequence (A0A3S7WPP0 1-258 partner)": "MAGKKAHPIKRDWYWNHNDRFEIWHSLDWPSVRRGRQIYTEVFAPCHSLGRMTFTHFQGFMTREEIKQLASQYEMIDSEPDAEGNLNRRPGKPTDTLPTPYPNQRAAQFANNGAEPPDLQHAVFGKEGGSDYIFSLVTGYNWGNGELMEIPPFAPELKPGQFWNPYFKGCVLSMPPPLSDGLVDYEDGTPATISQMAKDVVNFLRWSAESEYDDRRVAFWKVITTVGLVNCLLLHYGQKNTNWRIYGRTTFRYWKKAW", "assay": "Complex III assay in mitochondria-enriched cell lysates", "experimental": "Measurement of complex III activity and inhibition were performed as described previously ([6])."}, "[14]": {"test_system": "HepG2 cells", "assay": "Seahorse mitochondrial stress test", "assay_type": "cell-based", "protocol": "(§2) Seahorse® 96 well plates were seeded with HepG2 cells and incubated overnight (37°C, 5% CO2). The media in all plate wells was then replaced with Seahorse® assay media and the plates were incubated (37°C, CO2 free) for a further 1 hour before placing in the Seahorse® XFe96 analyser (Agilent Technologies Inc, USA). […] OCR and ECAR were measured for 45 minutes before the sequential addition of oligomycin (ATP synthase inhibitor), FCCP (carbonyl cyanide 4-(trifluoromethoxy) phenylhydrazone, protonophore uncoupler) and rotenone plus antimycin A (Electron transport chain Complex I and III inhibitors respectively). Multiple measurements of OCR and ECAR were made following each of these additions.\n(§3) Mean ± standard deviation of the compound ratio data were plotted vs log concentration and curves fitted (as described in [24]) and the minimum effective concentration (MEC) determined using limits based on the DMSO vehicle mean ± 2 standard deviations or, where these limits were deemed too narrow, the DMSO vehicle mean ± minimum limits set for each parameter. The AC50 was calculated using the curve and historical maximum (activation) and minimum (inhibition) responses and is defined as the concentration at which 50% of the maximum or minimum effect is observed, provided a clear concentration response relationship is seen."}, "[15]": {"assay": "Seahorse mitochondrial stress test", "assay_type": "cell-based", "conditions": "human, HepG2 cells; read-out: OCR Basal AC50", "protocol": "as §2, §3"}}, "note": "“Also recorded” adds a separate entry of the source. Read-outs that look alike come from different tables or passages of the source.", "data": [{"compound": "Cc1[nH]c2nc(N)nc(C)c2c1-c1ccc(C#N)c2c1OCO2", "note": "[DNDI-6174]", "values": [{"measurement": "activity (% of DMSO control)", "setting": "[1]", "value": 99.1, "unit": "%"}, {"measurement": "NOAEL at 14 days", "setting": "[2]", "value": 80, "unit": "mg/kg"}, {"measurement": "inhibition at 100 µM", "setting": "[3]", "value": 43, "unit": "%"}, {"measurement": "IC50", "setting": "[4]", "value": 12.8, "unit": "µM"}, {"measurement": "Hepatocyte predicted in vivo CLplasma", "setting": "[5]; Mouse", "value": 17, "unit": "mL/min/kg"}, {"measurement": "hepatocyte CLint at 0.5 µM", "setting": "[5]; mouse, cryopreserved hepatocytes", "value": "9.7 ± 0.091", "unit": "µL/min/1e6 cells"}, {"measurement": "fraction unbound", "setting": "[6]", "value": 0.63}, {"measurement": "genotoxicity, in words", "setting": "[7]", "value": "not genotoxic"}, {"measurement": "CC50", "setting": "[8]", "value": "> 80", "unit": "µM"}, {"measurement": "AUC", "setting": "[9]; male, oral, 27 ug", "value": 460, "unit": "µg·h/mL"}, {"measurement": "AUC", "setting": "[9]; 4 ug", "value": 60, "unit": "µg·h/mL"}, {"measurement": "clearance", "setting": "[9]; from in vitro predictions, read-out: expected plasma clearance in humans", "value": "~1", "unit": "mL/min/kg"}, {"measurement": "CC50", "setting": "[10]", "value": "> 63", "unit": "µM"}, {"measurement": "CC50", "setting": "[11]", "value": "> 64", "unit": "µM"}, {"measurement": "EC50", "setting": "[12]", "value": "5 to 20", "unit": "µM"}, {"measurement": "IC50", "setting": "[13]; lysates from axenic amastigote stage", "value": "0.002 ± 0.0005", "unit": "µM"}, {"measurement": "IC50", "setting": "[13]; lysates from promastigote stage", "value": "0.008 ± 0.0017", "unit": "µM"}, {"measurement": "OCR Basal minimum effect concentration (MEC)", "setting": "[14]", "value": 95.6, "unit": "µM"}, {"measurement": "Reserve Capacity, ECAR, Maximum Capacity, ATP production, in words", "setting": "[14]", "value": "No significant response observed on reserve; also recorded: no changes in Reserve Capacity, ECAR, Maximum Capacity or ATP production"}, {"measurement": "margin of Seahorse OCR MEC over free concentration at predicted human therapeutic plasma Cmax", "setting": "[14]", "value": "approximately 187 fold"}, {"measurement": "ECAR, in words", "setting": "[14]; 200 μM", "value": "transient increase"}, {"measurement": "OCR Basal maximum reduction", "setting": "[14]; 200 μM", "value": 14, "unit": "%"}, {"measurement": "AC50 at 45 min", "setting": "[15]", "value": "> 200", "unit": "µM"}]}]}
